# Target: T1, MTP (Rattus norvegicus, UniProt D4A1W8)
# T1 construct: endogenous in cells; host or cells: rat primary hepatocytes (male Sprague-Dawley), cell lysate
# T1 sequence (D4A1W8 22-896): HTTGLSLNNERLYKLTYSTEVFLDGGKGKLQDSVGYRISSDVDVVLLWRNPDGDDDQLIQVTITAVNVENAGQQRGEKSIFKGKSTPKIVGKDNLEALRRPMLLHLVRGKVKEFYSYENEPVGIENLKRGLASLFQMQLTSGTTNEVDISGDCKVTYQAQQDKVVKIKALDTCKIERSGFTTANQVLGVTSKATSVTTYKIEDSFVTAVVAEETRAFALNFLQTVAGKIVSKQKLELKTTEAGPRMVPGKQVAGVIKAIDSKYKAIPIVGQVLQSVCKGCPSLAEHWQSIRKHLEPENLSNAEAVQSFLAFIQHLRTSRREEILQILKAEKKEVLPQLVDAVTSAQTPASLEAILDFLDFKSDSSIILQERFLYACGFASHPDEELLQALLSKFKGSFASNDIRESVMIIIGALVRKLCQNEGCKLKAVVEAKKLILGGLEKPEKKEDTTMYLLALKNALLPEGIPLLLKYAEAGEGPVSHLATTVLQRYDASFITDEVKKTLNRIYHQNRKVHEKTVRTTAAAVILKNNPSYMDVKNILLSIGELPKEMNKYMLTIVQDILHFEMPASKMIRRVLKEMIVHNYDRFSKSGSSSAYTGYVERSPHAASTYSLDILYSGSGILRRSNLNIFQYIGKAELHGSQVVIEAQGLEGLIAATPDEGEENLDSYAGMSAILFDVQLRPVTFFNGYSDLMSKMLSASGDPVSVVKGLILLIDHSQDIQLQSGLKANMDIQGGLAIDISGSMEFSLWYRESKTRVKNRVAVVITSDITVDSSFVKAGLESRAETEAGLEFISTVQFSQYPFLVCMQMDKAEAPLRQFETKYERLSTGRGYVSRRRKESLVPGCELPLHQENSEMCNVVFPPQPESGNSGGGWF
# T1 sequence (P04785 20-509 partner): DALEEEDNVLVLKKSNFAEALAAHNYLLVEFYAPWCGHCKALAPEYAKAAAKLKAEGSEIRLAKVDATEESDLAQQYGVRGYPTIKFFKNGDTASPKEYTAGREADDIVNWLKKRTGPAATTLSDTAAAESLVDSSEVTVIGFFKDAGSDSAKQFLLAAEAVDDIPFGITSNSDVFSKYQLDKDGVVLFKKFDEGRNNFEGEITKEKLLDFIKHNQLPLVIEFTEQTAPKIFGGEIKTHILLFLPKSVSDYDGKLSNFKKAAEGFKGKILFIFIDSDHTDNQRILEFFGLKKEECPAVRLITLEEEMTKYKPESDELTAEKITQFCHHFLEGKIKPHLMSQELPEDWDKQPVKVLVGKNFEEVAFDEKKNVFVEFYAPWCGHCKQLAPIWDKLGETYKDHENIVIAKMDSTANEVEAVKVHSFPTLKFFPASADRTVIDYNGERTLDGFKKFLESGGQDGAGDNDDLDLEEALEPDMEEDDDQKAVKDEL
# Experiment: MTP activity in lysates of fatty acid-pretreated rat primary hepatocytes
# Format: biochemical
# Settings: hepatocytes pre-treated 6 hr with BSA, OA or EPA
# Protocol: Three methods were used to assess possible effects of Ω-3 fatty acids on cellular MTP function. First, rat primary hepatocytes were incubated with BSA, OA, or EPA, and then MTP activity in cell lysates was measured using a fluorescent assay (Roar Biomedical, New York, NY). Second, to determine if lipid classes synthesized in the presence of OA or Ω-3 fatty acid are equivalent substrates for MTP, primary rat hepatocytes or HepG2 cells were incubated with tritiated OA or EPA, total cellular lipids were extracted into isopropanol, and biosynthetically labeled cholesteryl ester, triglyceride, and phospholipids were separated by preparative thin layer chromatography. […] Transfer of the labeled lipids to acceptor vesicles in the presence of 50 μg of purified bovine MTP was measured as described in Jamil, H. et al (1995) J Biol Chem 270(12), 6549-54.
# First, it was necessary to test the possibility that Ω-3 fatty acids stimulate apob degradation by impeding MTP-dependent early lipidation, thereby targeting apoB to proteasomes. Rat primary hepatocytes were pre-treated for 6 hr with BSA, OA, or EPA, and then the MTP activity in lysates of these cells was assessed using artificial donor and acceptor vesicles, with [^14C]triolein as the MTP substrate, as described in Jamil, H. et al. (1995) J Biol Chem 270(12), 6549-54.
smiles,measurement,value
"CCCCCCCC/C=C\CCCCCCCC(=O)O [OA, oleic acid]",MTP-mediated transfer of labeled triolein in cell lysates,No difference
